Source: ChEMBL document CHEMBL3217673, “Synthesis of cyanine dyes and investigation of their in vitro antiprotozoal activities” (Medchemcomm, 2012)

Legend:
[1] = Selectivity index, ratio of IC50 for rat L6 cells to IC50 for Trypanosoma brucei rhodesiense STIB900; type: toxicity, cell-based; settings: read-out: Ratio IC50
Trypanosoma cruzi = assay: Antiprotozoal activity against Trypanosoma cruzi Tulahuen C2C4; type: functional, organism-based
[2] = Selectivity index, ratio of IC50 for rat L6 cells to IC50 for Trypanosoma cruzi Tulahuen C2C4; type: toxicity, cell-based; settings: read-out: Ratio IC50
[3] = Selectivity index, ratio of IC50 for rat L6 cells to IC50 for chloroquine and pyrimethamine-resistant Plasmodium falciparum K1; type: toxicity, cell-based; settings: read-out: Ratio IC50
[4] = Selectivity index, ratio of IC50 for rat L6 cells to IC50 for Leishmania donovani MHOMET-67/L82; type: toxicity, cell-based; settings: read-out: Ratio IC50
Leishmania donovani = assay: Antiprotozoal activity against Leishmania donovani MHOMET-67/L82; type: functional, organism-based
[5] = tested on: Trypanosoma brucei rhodesiense; assay: Antiprotozoal activity against Trypanosoma brucei rhodesiense STIB900; type: functional, organism-based
Plasmodium falciparum = assay: Antiprotozoal activity against chloroquine and pyrimethamine-resistant Plasmodium falciparum K1; type: functional, organism-based
L6 = assay: Cytotoxicity against rat L6 cells; type: cell-based

## CN1/C(=C/C=C/c2oc3ccccc3[n+]2C)Oc2ccccc21
[1]
  selectivity ratio: 5.3
Trypanosoma cruzi
  IC50: 106 nM
[2]
  selectivity ratio: 35.6
[3]
  selectivity ratio: 98.5
[4]
  selectivity ratio: 17.8
Leishmania donovani
  IC50: 211 nM
[5]
  IC50: 707 nM
Plasmodium falciparum
  IC50: 38 nM
L6
  IC50: 3760 nM

## Cc1ccc2c(c1)N(C)/C(=C/C=C/c1oc3ccccc3[n+]1C)O2
[1]
  selectivity ratio: 23.8
Trypanosoma cruzi
  IC50: 19 nM
[2]
  selectivity ratio: 57.7
[3]
  selectivity ratio: 12.6
[4]
  selectivity ratio: 50.5
Leishmania donovani
  IC50: 22 nM
[5]
  IC50: 48 nM
Plasmodium falciparum
  IC50: 90 nM
L6
  IC50: 1140 nM

## Cc1ccc2c(c1)N(C)/C(=C/C=C/c1oc3ccc(C)cc3[n+]1C)O2
[1]
  selectivity ratio: 4.3
[3]
  selectivity ratio: 17
[4]
  selectivity ratio: 42.5
Leishmania donovani
  IC50: 5 nM
[5]
  IC50: 54 nM
Plasmodium falciparum
  IC50: 14 nM
L6
  IC50: 230 nM

## CN1/C(=C/C=C/c2oc3ccccc3[n+]2C)Oc2ccc(Cl)cc21
[1]
  selectivity ratio: 4.1
Trypanosoma cruzi
  IC50: 7750 nM
[2]
  selectivity ratio: 3.1
[3]
  selectivity ratio: 25.8
[4]
  selectivity ratio: 16.3
Leishmania donovani
  IC50: 1460 nM
[5]
  IC50: 5840 nM
Plasmodium falciparum
  IC50: 925 nM
L6
  IC50: 23900 nM

## Cc1ccc2oc(/C=C/C=C3\Oc4ccc(Cl)cc4N3C)[n+](C)c2c1
[1]
  selectivity ratio: 55.7
Trypanosoma cruzi
  IC50: 1370 nM
[2]
  selectivity ratio: 5.5
[3]
  selectivity ratio: 16.2
[4]
  selectivity ratio: 68.6
Leishmania donovani
  IC50: 110 nM
[5]
  IC50: 136 nM
Plasmodium falciparum
  IC50: 468 nM
L6
  IC50: 7580 nM

## CN1/C(=C/C=C/c2oc3ccc(Cl)cc3[n+]2C)Oc2ccc(Cl)cc21
[1]
  selectivity ratio: 6.9
Trypanosoma cruzi
  IC50: 47800 nM
[2]
  selectivity ratio: 0.8
[3]
  selectivity ratio: 6
[4]
  selectivity ratio: 6.7
Leishmania donovani
  IC50: 5320 nM
[5]
  IC50: 5200 nM
Plasmodium falciparum
  IC50: 6030 nM
L6
  IC50: 35900 nM

## CN1/C(=C/C=C/c2oc3ccccc3[n+]2C)Sc2ccccc21
[1]
  selectivity ratio: 4.6
Trypanosoma cruzi
  IC50: 11 nM
[2]
  selectivity ratio: 75.8
[3]
  selectivity ratio: 303
[4]
  selectivity ratio: 9.5
Leishmania donovani
  IC50: 90 nM
[5]
  IC50: 185 nM
Plasmodium falciparum
  IC50: 2 nM
L6
  IC50: 849 nM

## Cc1ccc2c(c1)N(C)/C(=C/C=C/c1oc3ccccc3[n+]1C)S2
[1]
  selectivity ratio: 1.3
[3]
  selectivity ratio: 13.5
[4]
  selectivity ratio: 10.8
Leishmania donovani
  IC50: 14 nM
[5]
  IC50: 113 nM
Plasmodium falciparum
  IC50: 11 nM
L6
  IC50: 146 nM

## Cc1ccc2oc(/C=C/C=C3\Sc4ccccc4N3C)[n+](C)c2c1
[1]
  selectivity ratio: 0.2
[3]
  selectivity ratio: 7.5
[4]
  selectivity ratio: 3
Leishmania donovani
  IC50: 40 nM
[5]
  IC50: 496 nM
Plasmodium falciparum
  IC50: 16 nM
L6
  IC50: 121 nM

## Cc1ccc2c(c1)N(C)/C(=C/C=C/c1oc3ccc(C)cc3[n+]1C)S2
[1]
  selectivity ratio: 2.4
[3]
  selectivity ratio: 12
[4]
  selectivity ratio: 9
Leishmania donovani
  IC50: 10 nM
[5]
  IC50: 39 nM
Plasmodium falciparum
  IC50: 8 nM
L6
  IC50: 94 nM

## CN1/C(=C/C=C/c2oc3ccc(Cl)cc3[n+]2C)Sc2ccccc21
[1]
  selectivity ratio: 266
Trypanosoma cruzi
  IC50: 284 nM
[2]
  selectivity ratio: 12
[3]
  selectivity ratio: 166
[4]
  selectivity ratio: 55.4
Leishmania donovani
  IC50: 61 nM
[5]
  IC50: 13 nM
Plasmodium falciparum
  IC50: 20 nM
L6
  IC50: 3400 nM

## Cc1ccc2oc(/C=C/C=C3\Sc4ccc(Cl)cc4N3C)[n+](C)c2c1
[1]
  selectivity ratio: 19.2
Trypanosoma cruzi
  IC50: 109 nM
[2]
  selectivity ratio: 10.9
[3]
  selectivity ratio: 60
[4]
  selectivity ratio: 13.3
Leishmania donovani
  IC50: 89 nM
[5]
  IC50: 62 nM
Plasmodium falciparum
  IC50: 20 nM
L6
  IC50: 1180 nM

## CN1/C(=C/C=C/c2sc3ccccc3[n+]2C)Sc2ccc(F)cc21
[1]
  selectivity ratio: 1.2
[3]
  selectivity ratio: 94.5
[4]
  selectivity ratio: 6.1
Leishmania donovani
  IC50: 79 nM
[5]
  IC50: 394 nM
Plasmodium falciparum
  IC50: 5 nM
L6
  IC50: 483 nM

## CCN1/C(=C/C=C/c2sc3ccccc3[n+]2C)Sc2ccc(F)cc21
[1]
  selectivity ratio: 0.5
[3]
  selectivity ratio: 32.3
[4]
  selectivity ratio: 2.2
Leishmania donovani
  IC50: 111 nM
[5]
  IC50: 452 nM
Plasmodium falciparum
  IC50: 7 nM
L6
  IC50: 240 nM
